# In US20090227619A1, “Harmine derivatives, intermediates used in their preparations, preparation processes and use therefo” (priority 2003, published 2009):
# Like-named read-outs stand apart in the source and are kept apart here.
# Assays:
# S180 sarcoma = details: S180 sarcoma; for Body weight of the animals, beginning, First time / Body weight of the animals, end, First time / Inhibition rate, First time / Weight of the tumor X ± SD, First time / Body weight of the animals, beginning, Second time / Body weight of the animals, end, Second time / Inhibition rate, Second time: ip × 10qd
# From the text: There was one group of 8 to 10 mice C57BL/6 and Kunming mice for the anti-tumor tests and two groups of mice for negative control.
# (3) Sources of tumors: Lewis lung cancer cells and S180 sarcoma in mice, which were sub-cultured and maintained by Pharmacological Center of Shanghai Pharmaceutical Industrial Research Institute.
# All samples were weighed and added a small amount of Tween-80 to facilitate dissolution during the experiment, and then 0.5% CMC-Na solution was gradually added to achieve the desired concentration. The volume for experiment was 0.5 ml/20 g mouse.
# The medicaments were intraperitoneally administered once a day continuously for 10 days.
# For the negative control group, a vehicle of the same volume was intraperitoneally administered once a day continuously for 10 days. For the positive control group, CTX was administered in the dosage of 30 mg/kg once a day continuously for 7 days.
# In vivo anti-tumor subcutaneous vaccination in the axilla was employed. Wildly grown tumor source was taken under sterile conditions to form a cell suspension of about 1×10^7 ml by homogenization method. For a corresponding mouse host, the suspension was injected in the axilla in an amount of 0.2 ml/mouse. The next day, the medicaments were administered according to the design of the tests. About three weeks later, all the groups of animals were executed. The tumors were taken from the animals and weighed. The inhibition rate of tumors was calculated according to the following formula:
# T: average tumor weight of treated group; C: average tumor weight of negative control group.
# Hela = assay: In vitro cytotoxicity, IC50 by MTT method, Hela; assay type: cell-based; details: Homo sapiens; Hela cell strain; read-out: IC50 Hela
# In short: (§1)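 Cells in RPMI1640 with 10% FBS at 37° C, 5% CO2 were seeded at 10^5/ml and exposed to a compound concentration gradient for 48 h, at least three replicates, solvent controls.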
# HepG2 = assay: In vitro cytotoxicity, IC50 by MTT method, HepG2; assay type: cell-based, human; details: Homo sapiens; HepG2 cell strain; read-out: IC50 HepG2
# In short: as §1
# BGC-823 = assay: In vitro cytotoxicity, IC50 by MTT method, BGC-823; assay type: cell-based; details: Homo sapiens, BGC-823; BGC823 cell strain; read-out: IC50 BGC823
# In short: as §1
# Bel-7402 = assay: In vitro cytotoxicity, IC50 by MTT method, Bel-7402; assay type: cell-based; details: Homo sapiens, Bel-7402; Bel7402 cell strain; read-out: IC50 Bel7402
# In short: as §1
# NIH3T3 = assay: In vitro cytotoxicity, IC50 by MTT method, NIH3T3; assay type: cell-based; details: Mus musculus; NIH3T3 cell strain; read-out: IC50 NIH3T3
# In short: as §1
# PLA-801 = assay: In vitro cytotoxicity, IC50 by MTT method, PLA-801; assay type: cell-based; details: PLA-801 cell strain; read-out: IC50 PLA-801
# In short: as §1
# Lewis lung cancer = details: Lewis lung cancer; for Body weight of the animals, end, First time / Body weight of the animals, end, Second time: ip × 10qd;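 as to all read-outs here: mice implanted subcutaneously in the axilla with Lewis lung tumor cells, treated starting the following day, killed roughly three weeks after implantation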
# Kunming mice = details: for Death rate: single i.p.
# CT-DNA = assay: DNA thermal denaturation, determination of ΔTm; assay type: binding; details: 20 uM compound, Tm of CT-DNA alone 61° C.
# Procedure: Experiments were carried out in PE buffer (1 mM Na2HPO4, 0.1 mM EDTA, pH 7.6) in a thermostatically controlled cell hold, and the quartz cuvette (1 cm path length) was heated by circulating water at a heating rate of 0.5° C./min from 25 to 95° C. Amsacrine and Doxorubicin Hydrochloride were used as standards. In all cases, the concentration of CT-DNA was 15 ug/ml. The ‘melting’ temperature Tm was taken as the mid-point of the hyperchromic transition.
# ΔTm=Tm^drug-DNA complex−Tm^DNA alone
# The ΔTm of each compound was calculated, Experiments were repeated three times, and an average value was calculated.
# Lovo = assay: In vitro cytotoxicity, IC50 by MTT method, Lovo; assay type: cell-based; details: Homo sapiens; Lovo cell strain; read-out: IC50 Lovo
# In short: as §1
# in vivo = details: both, Kunming, mouse, ip
# 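For Death rate in this document: acute toxicity in Kunming mice grouped by sex, one intraperitoneal dose at five graded levels in Tween-80 plus 0.5% CMC-Na, deaths monitored over two weeks.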
# 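For LD50 in this document: acute toxicity in Kunming mice grouped by sex, one intraperitoneal dose at five graded levels in Tween-80 plus 0.5% CMC-Na, deaths monitored over two weeks.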
compound,measurement,setting,value
"OCc1cc2c3ccccc3n(Cc3ccccc3)c2cn1 [Compound 42, 9-benzyl-3-hydroxymethyl-β-carboline]","Body weight of the animals, beginning, First time",S180 sarcoma; Dosage 50 (mg/ml),19.5 g
same,"Body weight of the animals, end, First time",S180 sarcoma; Dosage 50 (mg/ml),24.7 g
same,"Inhibition rate, First time",S180 sarcoma; Dosage 50 (mg/ml),19.10%
same,"Weight of the tumor X ± SD, First time",S180 sarcoma; Dosage 50 (mg/ml),2.16 ± 0.38 g
same,"Body weight of the animals, beginning, Second time",S180 sarcoma; Dosage 50 (mg/ml),18.4 g
same,"Body weight of the animals, end, Second time",S180 sarcoma; Dosage 50 (mg/ml),25.6 g
same,"Inhibition rate, Second time",S180 sarcoma; Dosage 50 (mg/ml),20.74%
same,"Weight of the tumor X ± SD, Second time","S180 sarcoma; Dosage 50, ip × 10qd",2.14 ± 0.23 g
same,"Body weight of the animals, beginning, First time",S180 sarcoma; Dosage 100 (mg/ml),19.2 g
same,"Body weight of the animals, end, First time",S180 sarcoma; Dosage 100 (mg/ml),24.3 g
same,"Inhibition rate, First time",S180 sarcoma; Dosage 100 (mg/ml),28.09%
same,"Weight of the tumor X ± SD, First time",S180 sarcoma; Dosage 100 (mg/ml),1.92 ± 0.25 g
same,"Body weight of the animals, beginning, Second time",S180 sarcoma; Dosage 100 (mg/ml),18.9 g
same,"Body weight of the animals, end, Second time",S180 sarcoma; Dosage 100 (mg/ml),25.1 g
same,"Inhibition rate, Second time",S180 sarcoma; Dosage 100 (mg/ml),25.15%
same,"Weight of the tumor X ± SD, Second time","S180 sarcoma; Dosage 100, ip × 10qd",2.02 ± 0.36 g
same,Inhibition rate (%) S180 sarcomata,"S180 sarcoma; comparison table 43, in vivo",28.09%
same,IC50,Hela,120 µM
same,IC50,HepG2,90 µM
same,IC50,BGC-823,110 µM
same,IC50,Bel-7402,110 µM
same,IC50,NIH3T3,90 µM
same,IC50,PLA-801,160 µM
same,"Body weight of the animals, end, First time",Lewis lung cancer; Dosage 50 (mg/ml),24.7 g
same,"Body weight of the animals, end, Second time",Lewis lung cancer; Dosage 50 (mg/ml),24.7 g
same,"Body weight of the animals, beginning, First time","Lewis lung cancer; Dosage 50, ip × 10qd",20.0 g
same,"Inhibition rate, First time","Lewis lung cancer; Dosage 50, ip × 10qd",22.22%
same,"Weight of the tumor X ± SD, First time","Lewis lung cancer; Dosage 50, ip × 10qd",2.14 ± 0.26 g
same,"Body weight of the animals, beginning, Second time","Lewis lung cancer; Dosage 50, ip × 10qd",19.1 g
same,"Inhibition rate, Second time","Lewis lung cancer; Dosage 50, ip × 10qd",26.96%
same,"Weight of the tumor X ± SD, Second time","Lewis lung cancer; Dosage 50, ip × 10qd",1.89 ± 0.14 g
same,"Body weight of the animals, end, First time",Lewis lung cancer; Dosage 100 (mg/ml),25.1 g
same,"Body weight of the animals, end, Second time",Lewis lung cancer; Dosage 100 (mg/ml),25.1 g
same,"Body weight of the animals, beginning, First time","Lewis lung cancer; Dosage 100, ip × 10qd",20.3 g
same,"Inhibition rate, First time","Lewis lung cancer; Dosage 100, ip × 10qd",33.33%
same,"Weight of the tumor X ± SD, First time","Lewis lung cancer; Dosage 100, ip × 10qd",1.62 ± 0.12 g
same,"Body weight of the animals, beginning, Second time","Lewis lung cancer; Dosage 100, ip × 10qd",18.9 g
same,"Inhibition rate, Second time","Lewis lung cancer; Dosage 100, ip × 10qd",34.47%
same,"Weight of the tumor X ± SD, Second time","Lewis lung cancer; Dosage 100, ip × 10qd",1.92 ± 0.26 g
same,Inhibition rate (%) Lewis cancer,"Lewis lung cancer; comparison table 43, in vivo",34.47%
same,Death rate,"Kunming mice; 50% male 50% female mice, 240 mg/kg",50
same,Death rate,"Kunming mice; 50% male 50% female mice, 300 mg/kg",80
same,Death rate,"Kunming mice; female mice, 240 mg/kg",60
same,Death rate,"Kunming mice; female mice, 300 mg/kg",80
same,Death rate,"Kunming mice; male mice, 240 mg/kg",40
same,Death rate,"Kunming mice; male mice, 300 mg/kg",80
same,LD50,"Kunming mice; mouse, in vivo, ip",214 to 286 mg/kg
same,ΔTm,"CT-DNA; CT-DNA 15 ug/ml, PE buffer pH 7.6",−0.3 °C
same,ΔTm,CT-DNA; CT-DNA thermal denaturation,−0.3 °C
same,IC50,Lovo,100 µM
same,LD50 at 2 weeks,in vivo,247 mg/kg
